Test results published in patent publication US20260191858A1, “COMBINATION THERAPIES” (Kallyope, Inc., priority 2022, published 2026).

Key:
male C57BL/6J mice = experiment: Glucose excursion during oral glucose tolerance test in mice; type: in vivo; details: OGTT in mice
Procedure: The effects of GPR40 agonists of Formula (B) and a GPR119 agonist of Formula (A) alone and in combination on glucose excursion during an oral glucose tolerance test were assessed in mice. The effects of the combination of a compound of Formula (A) and compounds of Formula (B) with linagliptin (a DPP-4 inhibitor) or metformin were also assessed. Male C57BL/6J mice, approximately 10 weeks old, were acclimated to the facility and the oral dosing procedure. Mice were randomized into balanced treatment groups using body weight. Baseline glucose was assessed immediately before compound administration. […] Blood was assessed for glucose levels 20 min, 40 min, 60 min, and 120 min post D-(+)-glucose administration. The AUCs for blood glucose measures were calculated for each treatment from 0 to 120 min. Statistical analysis was performed on AUCs using one-way ANOVA versus vehicle, with Tukey's post-test.

human GPR40 = molecular target: T1, human GPR40 (Homo sapiens, UniProt O14842); experiment: Inositol phosphate accumulation assay in CHO-K1 cells expressing human GPR40; type: cell-based; details: CHO-K1 human GPR40, IP1 HTRF, 90 min
T1 construct: host or cells: CHO-K1
Procedure: CHO-K1 cells expressing human GPR40 were purchased from DiscoverX (95-1005C2). HEK293 cells expressing mouse FFAR1 were prepared using a mouse FFAR1 carrying plasmid purchased from OriGene Technologies (MR222997). The cells were transfected using Lipofectamine 2000 using manufacturer instructions and stable cell line was established from a single cell using geneticine selection. Assay ready frozen (ARF) cells were prepared and used throughout the study.
The assay was performed in a 384-well plate format using IP1 assay kit from Cis-Bio. ARF cells expressing FFAR1 (mouse and human) were thawed, washed and then plated in the appropriate medium (F12 based medium for CHO hFFAR1 and DMEM based medium for HEK293 mFFAR1—both were supplemented with 10% FBS and penicillin/streptomycin). 20 μL of 3.5×10^5 cells/mL were plated on a Poly D-Lysine coated 384-well white plate. The cells were then incubated for 16 hr at 37° C./5% CO2. After 16 hr the medium was removed and 15 μL of stimulation buffer containing the test compounds was added to the cells. The plates were then incubated for 90 min at 37° C./5% CO2. 5 μL of detection buffer (prepared as described in the IP-one kit) was added to each well and the plates were incubated at RT for 1 hr.
[…] was measured using ClarioSTAR plate reader, calculating the ratio between emissions at 665 nm and 620 nm (HTRF ratio). HTRF ratio for positive (Max) and negative (Min) controls were used to normalize HTRF data and generate values for % activity. EC50 and Max activity values were determined using a standard 4-parameter fit.

human GPR119 (hGPR119) = molecular target: T2, human GPR119 (hGPR119) (Homo sapiens, UniProt Q8TDV5); experiment: cAMP accumulation assay in CHO-K1 cells stably expressing hGPR119; type: cell-based; details: cAMP HTRF, 60 minutes
T2 construct: expressed in transfected cells; host or cells: CHO-K1
T2 sequence (Q8TDV5 1-335): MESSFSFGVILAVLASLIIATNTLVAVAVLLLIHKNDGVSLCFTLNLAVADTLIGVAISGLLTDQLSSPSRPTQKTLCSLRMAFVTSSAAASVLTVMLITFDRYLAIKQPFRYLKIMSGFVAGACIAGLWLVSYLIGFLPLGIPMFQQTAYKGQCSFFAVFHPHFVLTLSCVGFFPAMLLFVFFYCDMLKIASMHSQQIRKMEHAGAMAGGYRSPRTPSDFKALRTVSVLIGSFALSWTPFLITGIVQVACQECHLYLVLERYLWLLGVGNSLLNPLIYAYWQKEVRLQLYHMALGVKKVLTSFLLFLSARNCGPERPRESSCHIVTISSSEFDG
Outline: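 Assay-ready frozen CHO-K1 cells stably expressing hGPR119, ~10,000 cells/well, were exposed to compounds for 60 min at 37 °C in stimulation buffer with Tween 80. cAMP was measured by HTRF (665/620 nm ratio) and normalized to Max/Min controls as % activity. EC50 and Max activity came from a 4-parameter fit.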

T1 sequence (O14842 whole entry): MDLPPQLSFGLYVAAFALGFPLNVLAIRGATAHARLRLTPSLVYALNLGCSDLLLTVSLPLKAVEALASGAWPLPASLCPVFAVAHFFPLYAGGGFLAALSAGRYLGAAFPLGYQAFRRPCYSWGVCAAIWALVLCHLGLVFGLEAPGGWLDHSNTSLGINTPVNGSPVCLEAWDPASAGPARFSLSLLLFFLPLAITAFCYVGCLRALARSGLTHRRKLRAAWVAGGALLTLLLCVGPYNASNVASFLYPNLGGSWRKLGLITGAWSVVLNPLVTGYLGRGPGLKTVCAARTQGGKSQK

Row | EC50 (human GPR40) | EC50 (human GPR119 (hGPR119)) | Structure (SMILES) | further results
1 | ≤ 50 nM |  | COc1ccc(F)c([C@H]2CC[C@H](COc3cccc([C@H](C[P@@](C)(=O)O)C4CC4)c3)CC2)c1 (single isomer, unassigned) [Compound B3] | 
2 | 250 to 1000 nM |  | CC[C@@H](Cc1cccc(OCC2CCN(c3cc(OC)ccc3CCCC(C)(C)C)CC2)c1)P(C)(=O)O [Compound B12, ((S)-1-(3-((1-(2-(4,4-dimethylpentyl)-5-methoxyphenyl)piperidin-4-yl)methoxy)phenyl)butan-2-yl)(methyl)phosphinic acid] | 
3 | 250 to 1000 nM |  | CC[C@H](Cc1cccc(OCC2CCN(c3cc(OC)ccc3CCCC(C)(C)C)CC2)c1)P(C)(=O)O [Compound B13, ((R)-1-(3-((1-(2-(4,4-dimethylpentyl)-5-methoxyphenyl)piperidin-4-yl)methoxy)phenyl)butan-2-yl)(methyl)phosphinic acid] | 
4 | 50 to 250 nM |  | COc1ccc(CCCC(C)(C)C)c(N2CCC(COc3cccc([C@@H](C)CP(C)(=O)O)c3)CC2)c1 [Compound B11, ((R)-2-(3-((1-(2-(4,4-dimethylpentyl)-5-methoxyphenyl)piperidin-4-yl)methoxy)phenyl)propyl)(methyl) phosphinic acid] | 
5 | 50 to 250 nM |  | COc1ccc(F)c([C@H]2CC[C@H](COc3cccc([C@@H](C[P@@](C)(=O)O)C4CC4)c3)CC2)c1 (single isomer, unassigned) [Compound B4] | 
6 | ≤ 50 nM |  | COc1ccc(CCCC(C)(C)C)c(N2CCC(COc3cccc([C@@H](CP(C)(=O)O)C4CC4)c3)CC2)c1 [Compound B6, ((S)-2-cyclopropyl-2-(3-((1-(2-(4,4-dimethylpentyl)-5-methoxyphenyl)piperidin-4-yl)methoxy)phenyl)ethyl)(methyl)phosphinic acid] | 
7 | ≤ 50 nM |  | COc1ccc(F)c([C@H]2CC[C@H](COc3cc([C@@H](CP(C)(=O)O)C4CC4)ccn3)CC2)c1 [Compound B5, ((S)-2-cyclopropyl-2-(2-(((trans)-4-(2-fluoro-5-methoxyphenyl)cyclohexyl)methoxy)pyridin-4-yl)ethyl)(methyl)phosphinic acid] | 
8 | ≤ 50 nM |  | COc1ccc(CCCC(C)(C)C)c(N2CCC(COc3cc([C@@H](CP(C)(=O)O)C4CC4)ccn3)CC2)c1 [Compound B7, ((S)-2-cyclopropyl-2-(2-((1-(2-(4,4-dimethylpentyl)-5-methoxyphenyl)piperidin-4-yl)methoxy)pyridin-4-yl)ethyl)(methyl)phosphinic acid] | 
9 | ≤ 50 nM |  | COc1ccc(CCCC(C)(C)C)c(N2CCC(COc3cccc([C@H](C)CP(C)(=O)O)c3)CC2)c1 [Compound B10, ((S)-2-(3-((1-(2-(4,4-dimethylpentyl)-5-methoxyphenyl)piperidin-4-yl)methoxy)phenyl)propyl)(methyl) phosphinic acid] | 

Continued, molecule first:

Row | Structure (SMILES) | EC50 (human GPR40) | EC50 (human GPR119 (hGPR119)) | further results
10 | CN(C)C(=N)N=C(N)N [metformin] |  |  | post-prandial glucose excursion (male C57BL/6J mice): suppressed post-prandial glucose excursion
11 | COc1ccc(CCCC(C)(C)C)c(N2CCC(COc3cc([C@@H](C)CP(C)(=O)O)ccn3)CC2)c1 [Compound B8, ((R)-2-(2-((1-(2-(4,4-dimethylpentyl)-5-methoxyphenyl)piperidin-4-yl)methoxy)pyridin-4-yl)propyl)(methyl)phosphinic acid] | ≤ 50 nM |  | 
12 | COc1ccc(CCCC(C)(C)C)c(N2CCC(COc3cc([C@H](C)CP(C)(=O)O)ccn3)CC2)c1 [Compound B9, ((S)-2-(2-((1-(2-(4,4-dimethylpentyl)-5-methoxyphenyl)piperidin-4-yl)methoxy)pyridin-4-yl)propyl)(methyl)phosphinic acid] | 250 to 1000 nM |  | 
13 | COC(=O)c1cnc(N2CCC(CCCOc3ccc(CC(=O)N4CC(CNC[C@H](O)[C@@H](O)[C@H](O)[C@H](O)CO)C4)c(F)c3)CC2)nc1 [Compound A54, methyl 2-[4-[3-[3-fluoro-4-[2-oxo-2-[3-[[[(2S,3R,4R,5R)-2,3,4,5,6-pentahydroxyhexyl]amino]methyl]azetidin-1-yl]ethyl]phenoxy]propyl]-1-piperidyl]pyrimidine-5-carboxylate] |  | 100 to 1000 nM | 
14 | COCc1cnc(N2CCC(CCCOc3ccc(CC(=O)N4CC(CNC[C@H](O)[C@@H](O)[C@H](O)[C@H](O)CO)C4)c(F)c3)CC2)nc1 [Compound A53, 2-[2-fluoro-4-[3-[1-[5-(methoxymethyl)pyrimidin-2-yl]-4-piperidyl]propoxy]phenyl]-1-[3-[[[(2S,3R,4R,5R)-2,3,4,5,6-pentahydroxyhexyl]amino]methyl]azetidin-1-yl]ethanone] |  | 100 to 1000 nM | 
15 | O=C(Cc1ccc(OCCCC2CCN(c3ncc(Cl)cn3)CC2)cc1F)N1CC(CNC[C@@H](O)[C@H](O)[C@H](O)CO)C1 [Compound A62, 2-[4-[3-[1-(5-chloropyrimidin-2-yl)-4-piperidyl]propoxy]-2-fluoro-phenyl]-1-[3-[[[(2R,3S,4R)-2,3,4,5-tetrahydroxypentyl]amino]methyl]azetidin-1-yl]ethanone] |  | ≤ 100 nM | 
16 | O=C(Cc1ccc(OCCCC2CCN(c3ncc(Cl)cn3)CC2)cc1F)N1CC(CCNC(CO)(CO)CO)C1 [Compound A29, 2-(4-(3-(1-(5-chloropyrimidin-2-yl)piperidin-4-yl)propoxy)-2-fluorophenyl)-1-(3-(2-((1,3-dihydroxy-2-(hydroxymethyl)propan-2-yl)amino)ethyl)azetidin-1-yl)ethan-1-one] |  | 100 to 1000 nM | 
17 | O=C(CC1CN(C(=O)Cc2ccc(OCCCC3CCN(c4ncc(Cl)cn4)CC3)cc2F)C1)NC(CO)(CO)CO [Compound A7, 2-[1-[2-[4-[3-[1-(5-chloropyrimidin-2-yl)-4-piperidyl]propoxy]-2-fluoro-phenyl]acetyl]azetidin-3-yl]-N-[2-hydroxy-1,1-bis(hydroxymethyl)ethyl]acetamide] |  | 100 to 1000 nM | 
18 | CCOc1cnc(N2CCC(CCCOc3ccc(CC(=O)N4CC(CNC[C@H](O)[C@@H](O)[C@H](O)[C@H](O)CO)C4)c(F)c3)CC2)nc1 (racemic) [Compound A50, 2-[4-[3-[1-(5-ethoxypyrimidin-2-yl)-4-piperidyl]propoxy]-2-fluoro-phenyl]-1-[3-[[[rac-(2S,3R,4R,5R)-2,3,4,5,6-pentahydroxyhexyl]amino]methyl]azetidin-1-yl]ethanone] |  | 100 to 1000 nM | 
19 | O=C(Cc1ccc(OCCCC2CCN(c3ncc(Cl)cn3)CC2)cc1F)N1CC(CCNCC(CO)CO)C1 [Compound A27, 2-(4-(3-(1-(5-chloropyrimidin-2-yl)piperidin-4-yl)propoxy)-2-fluorophenyl)-1-(3-(2-((3-hydroxy-2-(hydroxymethyl)propyl)amino)ethyl)azetidin-1-yl)ethan-1-one] |  | ≤ 100 nM | 
20 | CCCc1cnc(N2CCC(CCCOc3cc(F)c(CC(=O)N4CC(CNCC(O)(CO)CO)C4)c(F)c3)CC2)nc1 [Compound A45, 2-(2,6-difluoro-4-(3-(1-(5-propylpyrimidin-2-yl)piperidin-4-yl)propoxy)phenyl)-1-(3-(((2,3-dihydroxy-2-(hydroxymethyl)propyl)amino)methyl)azetidin-1-yl)ethan-1-one] |  | ≤ 100 nM | 
21 | O=C(NCC(O)(CO)CO)C1CN(C(=O)Cc2ccc(OCCCC3CCN(c4ncc(Cl)cn4)CC3)cc2F)C1 [Compound A5, 1-[2-[4-[3-[1-(5-chloropyrimidin-2-yl)-4-piperidyl]propoxy]-2-fluoro-phenyl]acetyl]-N-[2,3-dihydroxy-2-(hydroxymethyl)propyl]azetidine-3-carboxamide] |  | ≤ 100 nM | 
22 | O=C(Cc1ccc(OCCCC2CCN(c3ncc(CO)cn3)CC2)cc1F)N1CC(CNC[C@H](O)[C@@H](O)[C@H](O)[C@H](O)CO)C1 [Compound A55, 2-[2-fluoro-4-[3-[1-[5-(hydroxymethyl)pyrimidin-2-yl]-4-piperidyl]propoxy]phenyl]-1-[3-[[[(2S,3R,4R,5R)-2,3,4,5,6-pentahydroxyhexyl]amino]methyl]azetidin-1-yl]ethanone] |  | 1000 to 10000 nM | 
